Data reported in BindingDB's records for doi:10.7270/Q2PZ577D (The Scripps Research Institute Molecular Screening Center, 2008).

Target: T1, Signal transducer and activator of transcription 3 [702-738,740-752] (Homo sapiens, UniProt P40763)
T1 construct: 702-738,740-752
Test: dose response, counter-screen for STAT1 inhibitor project (AID 1409)

T1 sequence (P40763 as listed by the source): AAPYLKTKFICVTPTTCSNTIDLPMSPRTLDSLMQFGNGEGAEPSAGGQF

SMILES: CCN1C(=O)C(=CNNC(=O)c2ccncc2)C(=O)N(CC)C1=S [SMR000218837]
- IC50: > 55.7 µM
